Values of other authors in patent US20100209350A1, “Biomarkers for Adipose Tissue Activity” (priority 2008, published 2010).

Tested on: adiponectin
Conditions: patient responding to the therapy; sample such as blood; general statement, no study described

CN(C)C(=N)N=C(N)N [metformin]
increase of adiponectin level from a reference value: about 20%
